Reference: patent US8420657B2 (Novartis AG, priority 2008, dated 2013)

Experiments:
GST-JAK2(808-1132) = molecular target: T1, GST-JAK2(808-1132) (Homo sapiens, UniProt O60674); assay: JAK2 kinase assay (Caliper mobility shift, LabChip 3000); type: biochemical
T1 construct: GST-JAK2(808-1132); purchased Invitrogen (Carlsbad, USA) #4288
Outline: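 Recombinant GST-JAK2(808-1132) kinase domain with FITC-labelled JAK3tide peptide substrate and ATP; 60 min at 30 °C, EDTA stop. Substrate/product ratio read by microfluidic mobility shift; compounds at 8 final concentrations, 10 to 0.003 μM.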

[1] = system: JAK1/JAK2-dependent nuclear translocation of STAT1-GFP in HT1080 fibrosarcoma cells; assay: STAT1 nuclear translocation assay (Cellomics), IFN-γ stimulated HT1080 STAT1-GFP cells; type: cell-based; conditions: Homo sapiens, HT-1080, STAT1 translocation pathway
Description: The medium-throughput (96-well format) cellular automated fluorescence microscopy Cellomics assay can be routinely used to assess the functional activation of Janus Kinases (JAKs), based on the nuclear translocation of their substrate, Signal Transducer and Activator of Transcription (STAT). Nuclear translocation can be monitored either in HT1080 fibrosarcoma cells stably transfected with STAT1 fused to Green Fluorescence Protein (GFP) or in U-2 OS osteosarcoma cells stably transfected with STAT5 fused to Green Fluorescence Protein (GFP). Stimulation of HT1080 cells with interferon-γ (IFN-γ) results in JAK1/JAK2-dependent nuclear translocation of STAT1-GFP, whereas stimulation of U-2 OS cells with recombinant human erythropoietin (rhEpo) results in JAK2-dependent nuclear translocation of STAT5-GFP, both of which can be quantified using the Cellomics Cyto/NucTrans software package. This assay may be used to provide an assessment of the nuclear-cytoplasmic differential (NCD) of STAT-GFP using Hoechst dye to define the boundaries of the nucleus.
HT1080 fibrosarcoma cells may be obtained from ATCC and can be cultured in alpha Modified Eagle Medium with 10% FCS. Cells can be transfected with pEGFP-N2 STAT1 using Fugene 6 Transfection Reagent following the manufacturers' protocol. 24 hours after transfection the medium can be replaced and selected in 1 mg/ml Geneticin.
Compounds can be dissolved in DMSO to a final stock concentration of 10 mM and stored as aliquots at 4° C. Compounds may be pre-diluted in 100% DMSO at 10 mM, 3 mM 1 mM, 0.3 mM, 0.1 mM, 0.03 mM, 0.01 mM and 0.003 mM. Subsequently, compounds may be diluted in medium and added in 50 μl to the cells. The final compound concentrations tested may be 10 μM, 3 μM 1 μM, 0.3 μM, 0.1 μM, 0.03 μM, 0.01 μM and 0.003 μM and the final DMSO concentration can be 0.1%.
HT1080 STAT1-GFP cells may be seeded at a density of 10,000 cells per well in clear-bottom black 96-well Packard View-Plates™. 16-24 hours later, the cells can be treated for 2 hours with 100 ng/ml IFN-γ, washed twice in pre-warmed PBS and fixed in 200 μl of pre-warmed fixation solution (PBS, 3.7% Formaldehyde) for 10 minutes. The plates may be washed twice in 200 μl PBS and incubated, protected from light, in 100 μl of DNA-staining solution (PBS, 0.5 μg/ml Hoechst-33342) for 1 minute. The plates may then be washed once in PBS, and 200 μl PBS finally added per well. The plates, being finally covered with a black adhesive, may be either read directly or stored at 4° C. for later imaging. Where appropriate, the compounds may be added 30 min before stimulation with IFN-γ.
The plates can be read on a Cellomics® ArrayscanII automated fluorescence microscope plate reader equipped with a Mercury-Xenon white light illumination source and a Zeiss Axiovert inverted microscope, using the XF100 dichroic/emission filter cube and matching excitation filters, 10× magnification, and a 0.3 numerical aperture objective. Image acquisition and analysis can be performed using a customized protocol based on the ‘NuclearTranslocation’ Bioapplication. For each well, multiple images (fields) can be acquired until a minimum of 1000 cells are counted using two 2 channels: Channel 1 (Hoechst)=focus+nuclear mask, Channel 2 (GFP)=signal quantification in mask areas as outlined below. Nuclei may be first identified based on the Hoechst staining and a mask generated for each nucleus that then serves as a template to generate a circle (eroded inwards by 1 pixel) and a 3 pixel-wide collar-like ring (off-set outwards by 1 pixel), in which the nuclear and cytoplasmic intensity of GFP, respectively, are quantified in the corresponding channel. High content analysis yields numerous measurements per cell and the GFP intensity differential between the nuclear and the cytoplasmic masks may be chosen as a measure of sub-cellular STAT-GFP relocation. The resulting values may be averaged for all cells in the well to return a single measurement plus standard deviation. […]

T1 sequence (O60674 808-1132): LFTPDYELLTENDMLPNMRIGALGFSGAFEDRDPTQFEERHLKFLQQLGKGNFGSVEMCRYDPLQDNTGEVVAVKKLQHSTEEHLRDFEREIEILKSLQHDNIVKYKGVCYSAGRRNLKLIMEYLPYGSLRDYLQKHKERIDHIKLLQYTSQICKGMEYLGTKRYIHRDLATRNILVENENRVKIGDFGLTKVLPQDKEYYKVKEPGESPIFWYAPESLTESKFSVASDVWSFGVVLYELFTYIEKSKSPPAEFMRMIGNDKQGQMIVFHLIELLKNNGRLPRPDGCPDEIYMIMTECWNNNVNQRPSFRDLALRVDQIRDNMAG

SMILES | IC50 (GST-JAK2(808-1132)) [nM] | IC50 [1] [nM]
CCN1CCCC1CNC(=O)c1ccc(Nc2ncc3ccn(-c4ccc(S(C)(=O)=O)cc4)c3n2)cc1 (stereo not drawn) [Example 68, N-(1-Ethyl-pyrrolidin-2-ylmethyl)-4-[7-(4-methanesulfonyl-phenyl)-7H-pyrrolo[2,3-d]pyrimidin-2-ylamino]-benzamide] | < 3 | 105
CN1CCN(C(=O)Cc2cccc(Nc3ncc4ccn(-c5ccc(S(C)(=O)=O)cc5)c4n3)c2)CC1 [Example 70, 2-{3-[7-(4-Methanesulfonyl-phenyl)-7H-pyrrolo[2,3-d]pyrimidin-2-ylamino]-phenyl}-1-(4-methyl-piperazin-1-yl)-ethanone] | 5.6 | 275
CN1CCN(C(=O)c2ccc(Nc3ncc4ccn(-c5ccc(S(C)(=O)=O)cc5)c4n3)cc2F)CC1 [Example 71, {2-Fluoro-4-[7-(4-methanesulfonyl-phenyl)-7H-pyrrolo[2,3-d]pyrimidin-2-ylamino]-phenyl}-(4-methyl-piperazin-1-yl)-methanone] | 6.8 | 362
CN1CCN(C(=O)c2ccc(Nc3ncc4ccn(-c5ccc(S(C)(=O)=O)cc5)c4n3)cc2C(F)(F)F)CC1 [Example 72, {4-[7-(4-Methanesulfonyl-phenyl)-7H-pyrrolo[2,3-d]pyrimidin-2-ylamino]-2-trifluoromethyl-phenyl}-(4-methyl-piperazin-1-yl)-methanone] | 3.7 | 750
Cc1cc(Nc2ncc3ccn(-c4ccc(S(C)(=O)=O)cc4)c3n2)ccc1C(=O)N1CCCC1 [Example 75, {4-[7-(4-Methanesulfonyl-phenyl)-7H-pyrrolo[2,3-d]pyrimidin-2-ylamino]-2-methyl-phenyl}-pyrrolidin-1-yl-methanone] | < 3 | 82.5
CS(=O)(=O)c1ccc(-n2ccc3cnc(Nc4ccc(F)c(C(=O)N5CCOCC5)c4)nc32)cc1 [Example 77, {2-Fluoro-5-[7-(4-methanesulfonyl-phenyl)-7H-pyrrolo[2,3-d]pyrimidin-2-ylamino]-phenyl}-morpholin-4-yl-methanone] | 38 | 2620
CCN1CCCC1CNC(=O)c1cc(Nc2ncc3ccn(-c4ccc(S(C)(=O)=O)cc4)c3n2)ccc1F (stereo not drawn) [Example 78, N-(1-Ethyl-pyrrolidin-2-ylmethyl)-2-fluoro-5-[7-(4-methanesulfonyl-phenyl)-7H-pyrrolo[2,3-d]pyrimidin-2-ylamino]-benzamide] | 29 | 545
CS(=O)(=O)c1ccc(-n2ccc3cnc(Nc4ccc(F)c(C(F)(F)F)c4)nc32)cc1 [Example 80, (4-Fluoro-3-trifluoromethyl-phenyl)-[7-(4-methanesulfonyl-phenyl)-7H-pyrrolo[2,3-d]pyrimidin-2-yl]-amine] | 430 | 10000
Cc1cc(Nc2ncc3ccn(-c4ccc(S(C)(=O)=O)cc4)c3n2)ccc1F [Example 81, (4-Fluoro-3-methyl-phenyl)-[7-(4-methanesulfonyl-phenyl)-7H-pyrrolo[2,3-d]pyrimidin-2-yl]-amine] | 18 | 2700
CC(C)Oc1ccc(Nc2ncc3ccn(-c4cc(F)c(C(=O)N5CCOCC5)c(F)c4)c3n2)cc1 [Example 82, {2,6-Difluoro-4-[2-(4-isopropoxy-phenylamino)-pyrrolo[2,3-d]pyrimidin-7-yl]-phenyl}-morpholin-4-yl-methanone] | 4.1 | 860
CC(C)Oc1ccc(Nc2ncc3ccn(-c4ccc(C5(C(=O)N6CCOCC6)CC5)cc4)c3n2)cc1 [Example 84, (1-{4-[2-(4-Isopropoxy-phenylamino)-pyrrolo[2,3-d]pyrimidin-7-yl]-phenyl}-cyclopropyl)-morpholin-4-yl-methanone] | < 3 | 275
CC(C)Oc1ccc(Nc2ncc3ccn(-c4ccc(C(=O)N5CCN(C)CC5)c(F)c4)c3n2)cc1 [Example 85, {2-Fluoro-4-[2-(4-isopropoxy-phenylamino)-pyrrolo[2,3-d]pyrimidin-7-yl]-phenyl}-(4-methyl-piperazin-1-yl)-methanone] | 3.8 | 3500
CS(=O)(=O)c1ccc(-n2ccc3cnc(Nc4ccc(C(=O)N5CCNCC5)cc4)nc32)cc1 [Example 87, {4-[7-(4-Methanesulfonyl-phenyl)-7H-pyrrolo[2,3-d]pyrimidin-2-ylamino]-phenyl}-piperazin-1-yl-methanone] | 3.8 | 18300

The next lines start with the values.

IC50 (GST-JAK2(808-1132)) [nM] | IC50 [1] [nM] | SMILES
< 3 | 39 | CS(=O)(=O)c1ccc(-n2ccc3cnc(Nc4ccc(C(=O)NCCN5CCOCC5)cc4)nc32)cc1 [Example 67, 4-[7-(4-Methanesulfonyl-phenyl)-7H-pyrrolo[2,3-d]pyrimidin-2-ylamino]-N-(2-morpholin-4-yl-ethyl)-benzamide]
< 3 | 80.5 | Cc1cc(Nc2ncc3ccn(-c4ccc(S(C)(=O)=O)cc4)c3n2)ccc1C(=O)N1CCN(C)CC1 [Example 73, {4-[7-(4-Methanesulfonyl-phenyl)-7H-pyrrolo[2,3-d]pyrimidin-2-ylamino]-2-methyl-phenyl}-(4-methyl-piperazin-1-yl)-methanone]
< 3 | 75.5 | Cc1cc(Nc2ncc3ccn(-c4ccc(S(C)(=O)=O)cc4)c3n2)ccc1C(=O)N1CCOCC1 [Example 74, {4-[7-(4-Methanesulfonyl-phenyl)-7H-pyrrolo[2,3-d]pyrimidin-2-ylamino]-2-methyl-phenyl}-morpholin-4-yl-methanone]
38 | 934 | CN1CCN(C(=O)c2cc(Nc3ncc4ccn(-c5ccc(S(C)(=O)=O)cc5)c4n3)ccc2F)CC1 [Example 76, {2-Fluoro-5-[7-(4-methanesulfonyl-phenyl)-7H-pyrrolo[2,3-d]pyrimidin-2-ylamino]-phenyl}-(4-methyl-piperazin-1-yl)-methanone]
4.8 | 257 | CC(=O)c1ccc(Nc2ncc3ccn(-c4ccc(S(C)(=O)=O)cc4)c3n2)cc1 [Example 79, 1-{4-[7-(4-Methanesulfonyl-phenyl)-7H-pyrrolo[2,3-d]pyrimidin-2-ylamino]-phenyl}-ethanone]
< 3 | 460 | CC(C)Oc1ccc(Nc2ncc3ccn(-c4ccc(C(C)(C)C(=O)N5CCOCC5)cc4)c3n2)cc1 [Example 83, 2-{4-[2-(4-Isopropoxy-phenylamino)-pyrrolo[2,3-d]pyrimidin-7-yl]-phenyl}-2-methyl-1-morpholin-4-yl-propan-1-one]
8 | 13000 | CC(=O)c1ccc(-n2ccc3cnc(Nc4ccc(OC(C)C)cc4)nc32)cc1 [Example 86, 11-{4-[2-(4-Isopropoxy-phenylamino)-pyrrolo[2,3-d]pyrimidin-7-yl]-phenyl}-ethanone]
8.9 | 3270 | Cc1cc(Nc2ncc3ccn(-c4ccc(C(=O)N5CCN(C)CC5)c(F)c4)c3n2)ccc1F [Example 88, {2-Fluoro-4-[2-(4-fluoro-3-methyl-phenylamino)-pyrrolo[2,3-d]pyrimidin-7-yl]-phenyl}-(4-methyl-piperazin-1-yl)-methanone]
